# Laboratory results published in patent US6448288B1, “Cannabinoid drugs” (University of Massachusetts, priority 2000, dated 2002).
# Read-outs that look alike come from different tables or passages of the source.
# Columns and labels:
# [1] = Stereospecificity of inhibition of cell proliferation (D-isomer vs L-isomer); assay type: cell-based; details: 25 μM dose, preparation 95% enriched in D-isomer, p<0.001, FIG. 2
# U118 = test: MTT assay, human cancer cell line U118 (brain); assay type: cell-based; details: U118, 25 μM, 48 hour MTT assay; for inhibition at 25 µM: Homo sapiens, read-out: Percent inhibition of human cancer cell line growth
# J82 = test: MTT assay, human cancer cell line J82 (bladder); assay type: cell-based; details: J82, 25 μM, 48 hour MTT assay; for inhibition at 25 µM: Homo sapiens, read-out: Percent inhibition of human cancer cell line growth
# U87 = test: MTT assay, human cancer cell line U87 (brain); assay type: cell-based; details: U87, 25 μM, 48 hour MTT assay; for inhibition at 25 µM: Homo sapiens, U-87 MG, read-out: Percent inhibition of human cancer cell line growth
# HS578T = test: MTT assay, human cancer cell line HS578T (breast); assay type: cell-based; details: 48 hour MTT assay; for inhibition at 25 µM: Homo sapiens, Hs-578T, read-out: Percent inhibition of human cancer cell line growth
# A172 = test: MTT assay, human cancer cell line A172 (brain); assay type: cell-based; details: A172, 25 μM, 48 hour MTT assay; for inhibition at 25 µM: Homo sapiens, A 172, read-out: Percent inhibition of human cancer cell line growth
# C6 cells [2] = test: Cell size and refractile bodies by phase microscopy, C6 cells; assay type: cell-based; details: for cells with one or more refractile bodies / mean number of refractile bodies per cell: C6 cells, after 48 hours
# Du145 = test: MTT assay, human cancer cell line Du145 (prostate); assay type: cell-based; details: Du145, 25 μM, 48 hour MTT assay; for inhibition at 25 µM: Homo sapiens, DU-145, read-out: Percent inhibition of human cancer cell line growth
# Calu6 = test: MTT assay, human cancer cell line Calu6 (lung); assay type: cell-based; details: Calu6, 25 μM, 48 hour MTT assay; for inhibition at 25 µM: Homo sapiens, Calu-6, read-out: Percent inhibition of human cancer cell line growth
# [3] = test system: human cell lines derived from a variety of cancer types (brain, breast, bladder, lung, and prostate); test: MTT assay, all ten human cancer cell lines together; assay type: cell-based; details: for inhibition at 25 µM: read-out: inhibition levels (mean±SD)
# PC3 = test: MTT assay, human cancer cell line PC3 (prostate); assay type: cell-based; details: PC3, 25 μM, 48 hour MTT assay; for inhibition at 25 µM: Homo sapiens, PC-3, read-out: Percent inhibition of human cancer cell line growth
# C6 glioma cells [4] = test: MTT cell proliferation assay, C6 glioma cells; assay type: cell-based; details: for IC50: MTT assay, FIG. 1, read-out: IC50, inhibition of C6 glioma cells; for inhibition at 25 µM: 48 h, two days, three different experiments
# U373 = test: MTT assay, human cancer cell line U373 (brain); assay type: cell-based; details: U373, 25 μM, 48 hour MTT assay; for inhibition at 25 µM: Homo sapiens, U373 MG, read-out: Percent inhibition of human cancer cell line growth
# HT1376 = test: MTT assay, human cancer cell line HT1376 (bladder); assay type: cell-based; details: HT1376, 25 μM, 48 hour MTT assay; for inhibition at 25 µM: Homo sapiens, HT-1376, read-out: Percent inhibition of human cancer cell line growth
# W138 cells = test: Refractile bodies by phase microscopy, W138 cells; assay type: cell-based; details: same length of time and dosage
# C6 cells [5] = test: Lipid incorporation assay (14C-arachidonic acid); assay type: cell-based; details: 25 μM, 48 hours
# C6 glioma cells [6] = test: Electron microscopy and trypan blue exclusion of treated cells; assay type: cell-based
# WI38 cells = test: Cell proliferation assay, normal fibroblast cell line WI38; assay type: cell-based, rat; details: WI-38, 48 h, two days, three different experiments
# C6 glioma cells [7] = test: Co-incubation of C6 glioma cells with a specific CB1 antagonist; assay type: cell-based; details: 3.2 μM of a specific CB1 antagonist
# [8] = test system: human glioma cell line U87; test: In vivo subcutaneous U87 tumor model in nude mice; parameters: species or system male nu/nu BALBc mice
# Experimental: In vivo subcutaneous model. 10^6 U87 cells were injected into the right […] of male nu/nu BALBc mice (Charles River). Two days after inoculation, the mice received either 0.1 mg/kg ajulemic acid in 0.05 ml of safflower oil, or 0.05 ml safflower oil by oral administration. Thereafter, identical dosings were performed on each Monday, Wednesday, and Friday. When visible tumors appeared, the size of the tumors were estimated by averaging the values of two roughly perpendicular diameters measurements. Visible tumors were measured on the days of drug administration.
# C6 glioma cells [9] = test: Flow cytometry/cell cycle analysis; assay type: cell-based; details: 25 μM
# Experimental: Flow cytometry/cell cycle analysis. For flow cytometry, cells were grown in low serum (0.5%) for two days to synchronize cells in G0/G1, after which they were placed in high serum (10%) for two days. The cells were then labeled with propidium iodide and fixed in 4% paraformaldehyde. Cells were examined using a MoFlo Facs sorter for DNA content.
# Protein kinase C (PKC) = Protein kinase C (PKC) assay in C6 cells; assay type: cell-based; details: 25 μM
# Experimental: Protein kinase C (PKC) assay. Cells were transferred into MEM media (0.5% serum) and cultured overnight. The next day, cells were treated with either DMSO or 25 μM ajulemic acid for the specified incubation time, after which the plates were trypsinized. 5×10^6 trypsinized cells were assayed for PKC activity using a kit (Calbiochem, cat. no. 53984).
# [10] = 48 hours, mean over the ten human lines
# [11] = two days in 10% serum after synchronization
# [12] = two days in 10% serum after synchronization, listed as AJA
structure (smiles),measurement,setting,value
"CCCCCCC(C)(C)c1cc(O)c2c(c1)OC(C)(C)[C@@H]1CC=C(C(=O)O)C[C@@H]21 (single isomer, unassigned) [D-isomer of ajulemic acid]",potency of D-isomer compared to L-isomer of ajulemic acid,[1],marked decrease in the potency
CCCCCc1cc(O)c2c(c1)OC(C)(C)[C@@H]1CC=C(C(=O)O)C[C@@H]21 [THC-11-oic acid],Percent inhibition of human cancer cell line growth,U118,14 ± 3%
same,Percent inhibition of human cancer cell line growth,J82,1 ± 1%
same,Percent inhibition of human cancer cell line growth,U87,5 ± 1%
same,Percent inhibition of human cancer cell line growth,HS578T; 25 μM,2 ± 1%
same,Percent inhibition of human cancer cell line growth,A172,61 ± 2%
same,refractile bodies noted (in words),"C6 cells [2]; C6 glioma cells, 25 μM, 48 hours",no refractile bodies
same,Percent inhibition of human cancer cell line growth,Du145,7 ± 3%
same,Percent inhibition of human cancer cell line growth,Calu6,19 ± 5%
same,inhibition levels (mean±SD),"[3]; 25 μM, 48 hours, mean over the ten human lines",13.1±18.5%
same,Percent inhibition of human cancer cell line growth,PC3,1 ± 1%
same,IC50,C6 glioma cells [4],20 µM
same,Percent inhibition of human cancer cell line growth,U373,0%
same,Percent inhibition of human cancer cell line growth,HT1376,21 ± 12%
"CCCCCCC(C)(C)c1cc(O)c2c(c1)OC(C)(C)[C@@H]1CC=C(C(=O)O)C[C@@H]21 [ajulemic acid, 1′,1′-dimethylheptyl-Δ^8-THC-11-oic acid]",inhibition at 25 µM,U118,60 ± 2%
same,inhibition at 25 µM,J82,57 ± 3%
same,refractile bodies noted (in words),W138 cells,no refractile bodies
same,inhibition at 25 µM,U87,54 ± 2%
same,content of tri- and di-glyceride versus controls,C6 cells [5],over three-fold greater
same,neutral lipids versus basal levels,"C6 cells [5]; p<0.05 vs control, FIG. 3",significant increase above basal levels
same,inhibition at 25 µM,HS578T,60 ± 2%
same,inhibition at 25 µM,A172,76 ± 1%
same,recovery upon drug removal,C6 glioma cells [6],recover quickly upon drug removal
same,state of treated cells under electron microscopy,C6 glioma cells [6],neither apoptotic nor necrotic
same,viability rate by trypan blue exclusion,C6 glioma cells [6]; treated cells,> 95%
same,inhibition at 25 µM,WI38 cells,44%
same,cells with one or more refractile bodies,C6 cells [2],83%
same,mean number of refractile bodies per cell,C6 cells [2],1.78±1.6 per cell
same,cell size,C6 cells [2]; after 48 hours of exposure,marked increase in cell size
same,inhibition at 25 µM,Du145,74 ± 2%
same,change of effect on co-incubation with CB1 antagonist (in words),C6 glioma cells [7],slight potentiation
same,appearance and size of tumors (in words),"[8]; 0.1 mg/kg thrice weekly, FIG. 4",delay in both the appearance and size of tumors
same,mean tumor diameter,"[8]; day 25 post-inoculation, 0.1 mg/kg oral thrice weekly, n=5, p=0.015",3.8±8.5 mm
same,inhibition at 25 µM,Calu6,69 ± 3%
same,effectiveness compared to THC,"[3]; 25 μM, p<0.05, in six of the ten lines tested",significantly more effective
same,inhibition at 25 µM,[3]; [10],61.3 ± 12.1%
same,rate of apoptosis (sub-G0 cells),C6 glioma cells [9]; two days,not increased
same,G0/G1 (mean % ± SD),C6 glioma cells [9]; [11],39.1 ± 1.3 %
same,G2/M (mean % ± SD),C6 glioma cells [9]; [11],32.3%
same,S (mean % ± SD),C6 glioma cells [9]; [11],13.0%
same,G2/M (mean % ± SD),C6 glioma cells [9]; [12],32.3 ± 3.0 %
same,S (mean % ± SD),C6 glioma cells [9]; [12],13.0 ± 2.3 %
same,inhibition at 25 µM,PC3,69 ± 2%
same,onset of PKC activity increase,Protein kinase C (PKC),increased within five minutes
same,PKC activity versus control,Protein kinase C (PKC); for one hour,approximately two-fold above that of control
same,inhibition at 25 µM,C6 glioma cells [4],65%
same,IC50,C6 glioma cells [4]; C6 glioma,55 µM
same,inhibition at 25 µM,U373,34 ± 1%
same,inhibition at 25 µM,HT1376,60 ± 2%
"CCCCCc1cc(O)c2c(c1)OC(C)(C)[C@@H]1CCC(C)=C[C@@H]21 [Δ^9-THC, tetrahydrocannabinol]",inhibition at 25 µM,U118,39 ± 5%
same,inhibition at 25 µM,J82,63 ± 6%
same,inhibition at 25 µM,U87,20 ± 5%
same,inhibition at 25 µM,HS578T,52 ± 5%
same,inhibition at 25 µM,A172,42 ± 5%
same,inhibition at 25 µM,WI38 cells,66%
same,cells with one or more refractile bodies,C6 cells [2],27%
same,mean number of refractile bodies per cell,C6 cells [2],0.22±0.5 per cell
same,inhibition at 25 µM,Du145,55 ± 7%
same,decrease in potency on co-incubation with CB1 antagonist,C6 glioma cells [7],150%
same,inhibition at 25 µM,Calu6,28 ± 5%
same,inhibition at 25 µM,[3]; [10],39.4 ± 22%
same,inhibition at 25 µM,PC3,72 ± 2%
same,inhibition at 25 µM,C6 glioma cells [4],50%
same,IC50,C6 glioma cells [4]; C6 glioma,10 µM
same,inhibition at 25 µM,U373,0%
same,inhibition at 25 µM,HT1376,23 ± 5%
